# Measured values as given in patent US8778966B2, “Quinolinone derivatives as PARP and tank inhibitors” (Janssen Pharmaceutica, NV, priority 2007, dated 2014).
# System: tubulin
# Test: Tubulin polymerization assay
# Type: biochemical
# Design: key: a compound showing 0 to 50% inhibition at 20 μM is reported as score 1; Score 2 compounds are defined as compound showing more than 50% inhibition at 20 μM and less than 50% inhibition at 5 μM; a compound showing more than 50% inhibition at 5 μM is reported as score 3
# Details: tested at 20 μM and 5 μM
# Description: The tubulin polymerization assay is an adaptation of an assay originally described by Bonne, D. et al. (J. Biol. Chem., 1985, 260:2819-25). The assay kit was purchased from Cytoskeleton, Inc. (catalogue number BK011) and the assay was performed as described by the supplier with the following modifications. The assay was run in a 384-well black Proxiplate (Perkin Elmer) and volumes were adapted accordingly. The reactions were carried out in a final volume of 10 μl. Compounds were added to 25 μl of the reaction mix in 96-well PP plates (Corning) on ice and 10 μl of this mixture was dispensed into duplicates of the 384-well Proxiplates pre-warmed to 37° C. in a Fluoroskan Ascent plate reader (Thermo Scientific). Fluorescence measurements were taken every minute for one hour. The maximum slope of each well was determined (linear regression through 4 consecutive points) and polymerization was calculated as a percentage of polymerization observed in the absence of compound. Compounds were first measured at a concentration of 20 μM and then at 5 μM for those showing more than 50% inhibition at 20 μM as compared to the polymerization observed in the absence of compound. Results are reported in Table F-2 as scores defined as: a compound showing 0 to 50% inhibition at 20 μM is reported as score 1; a compound showing more than 50% inhibition at 5 μM is reported as score 3.
row,Compound,tubulin polymerisation score
1,"CCc1cc2ccc([C@@](C)(C#N)CCOc3ccccc3)cc2[nH]c1=O (single isomer, unassigned) [Compound 150]",2
2,CCc1cc2ccc(C(C)(C#N)Cc3ccccc3F)cc2[nH]c1=O (stereo not drawn) [Compound 106],1 (a compound showing 0 to 50% inhibition at 20 μM is reported as score 1)
3,CCc1cc2ccc(C(C)(C#N)Cc3cccc(C(F)(F)F)c3)cc2[nH]c1=O (stereo not drawn) [Compound 109],2
4,CCc1cc2ccc(C(C)(C#N)Cc3cccc(F)c3)cc2[nH]c1=O (stereo not drawn) [Compound 112],1 (a compound showing 0 to 50% inhibition at 20 μM is reported as score 1)
5,CCc1cc2ccc(C(C)(C#N)Cc3cccc(OC)c3)cc2[nH]c1=O (stereo not drawn) [Compound 113],2
6,CCc1cc2ccc(C(C)(C#N)Cc3ccc(F)cc3)cc2[nH]c1=O (stereo not drawn) [Compound 115],2
7,CCc1cc2ccc(C(C)(C#N)Cc3ccc(C)cc3)cc2[nH]c1=O (stereo not drawn) [Compound 117],2
8,CCc1cc2ccc(C(C)(C#N)Cc3cc(F)cc(Cl)c3)cc2[nH]c1=O (stereo not drawn) [Compound 126],2
9,CCc1cc2ccc(C(C)(C#N)Cc3cc(F)cc(F)c3)cc2[nH]c1=O (stereo not drawn) [Compound 128],1 (a compound showing 0 to 50% inhibition at 20 μM is reported as score 1)
10,CCc1cc2ccc(C(C)(C#N)Cc3cccc(Cl)c3F)cc2[nH]c1=O (stereo not drawn) [Compound 130],2
11,CCc1cc2ccc(C(C)(C#N)Cc3ccc(F)cc3F)cc2[nH]c1=O (stereo not drawn) [Compound 137],1 (a compound showing 0 to 50% inhibition at 20 μM is reported as score 1)
12,CCc1cc2ccc(C(C)(C#N)Cc3c(F)cccc3F)cc2[nH]c1=O (stereo not drawn) [Compound 138],1 (a compound showing 0 to 50% inhibition at 20 μM is reported as score 1)
13,CCc1cc2ccc(C(C)(C#N)CCOc3cccc(C)c3)cc2[nH]c1=O (stereo not drawn) [Compound 143],2
14,CCc1cc2ccc(C(C)(C#N)CCOc3ccccc3C)cc2[nH]c1=O (stereo not drawn) [Compound 148],1 (a compound showing 0 to 50% inhibition at 20 μM is reported as score 1)
15,CCc1cc2ccc(C(C)(C#N)CCOc3ccc(C)cc3)cc2[nH]c1=O (stereo not drawn) [Compound 149],2
16,CCc1cc2ccc(C(C)(C#N)CCOc3cccc(Cl)c3)cc2[nH]c1=O (stereo not drawn) [Compound 151],2
17,CCc1cc2ccc(C(C)(C#N)CCOc3ccccc3Cl)cc2[nH]c1=O (stereo not drawn) [Compound 152],2
18,CCc1cc2ccc(C(C)(C#N)CCOc3ccccc3Br)cc2[nH]c1=O (stereo not drawn) [Compound 153],2
19,CCc1cc2ccc(C(C)(C#N)CCOc3ccc(C#N)cc3)cc2[nH]c1=O (stereo not drawn) [Compound 161],2
20,CCc1cc2ccc(C(C)(C#N)CCOc3cccc4c3OCCO4)cc2[nH]c1=O (stereo not drawn) [Compound 163],2

# System: not given
# Test: not given
# Details: not given
row,melting point [°C],Compound
1,241,"CCc1cc2ccc(C(C)(C#N)CC3COc4ccccc4O3)cc2[nH]c1=O (single isomer, unassigned) [Compound 48]"
2,> 260,CCc1cc2ccc(C(C)(C#N)Cc3cccc(C(=O)O)c3)cc2[nH]c1=O (stereo not drawn) [Compound 10]
3,152,CCc1cc2ccc(C(C)(C#N)Cc3cccc(-c4nc(C)no4)c3)cc2[nH]c1=O (stereo not drawn) [Compound 11]
4,140,CCc1cc2ccc(C(C)(C#N)Cc3cccc(C(=O)OC)c3)cc2[nH]c1=O (stereo not drawn) [Compound 12]
5,182,CCc1cc2ccc(C(C)(C#N)Cc3cccc(C(=O)NC)c3)cc2[nH]c1=O (stereo not drawn) [Compound 13]
6,80,CCc1cc2ccc(C(C)(C#N)Cc3cccc(NS(C)(=O)=O)c3)cc2[nH]c1=O (stereo not drawn) [Compound 14]
7,187,CCc1cc2ccc(C(C)(C#N)Cc3cccc(N)c3)cc2[nH]c1=O (stereo not drawn) [Compound 15]
8,121,CCc1cc2ccc(C(C)(C#N)Cc3cccc(NC(=O)N4CCOCC4)c3)cc2[nH]c1=O (stereo not drawn) [Compound 16]
9,192,CCc1cc2ccc([C@](C)(C#N)C[C@@H]3CCc4cc(C)ccc4O3)cc2[nH]c1=O [Compound 251]
10,184,CCc1cc2ccc([C@@](C)(C#N)C[C@@H]3CCc4cc(C)ccc4O3)cc2[nH]c1=O [Compound 252]
